Laboratory results reported in publication PMC13210772, “Dual FLT3/MAPK14 Proteolysis-Targeting Chimera (PROTAC) Induces Potent Acute Myeloid Leukemia Cell Death” (Pharmaceuticals, 2026).

Columns and labels:
FLT3-ITD [1] = experiment: KINOMEscan binding assay
Procedure: Binding to FLT3-ITD was determined using the KINOMEscan^TM assay (Eurofins DiscoverX Corporation, San Diego, CA, USA)
(§1) Kinase-tagged T7 phage strains were prepared in an E. coli host derived from the BL21 strain. E. coli were grown to log-phase and infected with T7 phage and incubated with shaking at 32 °C until lysis. The lysates were centrifuged and filtered to remove cell debris. The remaining kinases were produced in HEK-293 cells and subsequently tagged with DNA for qPCR detection. […] The liganded beads were blocked with excess biotin and washed with blocking buffer (SeaBlock (Pierce), 1% BSA, 0.05% Tween 20, 1 mM DTT) to remove unbound ligand and to reduce non-specific binding. […] The compounds were then diluted directly into the assays such that the final concentration of DMSO was 0.9%. All reactions performed in polypropylene 384-well plate. Each was a final volume of 0.02 mL. […] The kinase concentration in the eluates was measured by qPCR.

MOLM-13 cells = experiment: Apoptosis by flow cytometry (annexin-V/propidium iodine); assay type: cell-based, human; conditions: 72 h
Procedure: To further assess the biological relevance of these findings, we treated MV4-11 cells with the new PROTACs, included MA49 as control, and analyzed them for early (annexin-V positive) and late apoptosis (annexin-V and propidium iodine positive) by flow cytometry. Cells in late apoptosis are more severely damaged than cells in early apoptosis. […] After 72 h, all degraders evoked equal levels of apoptosis (Figure 4c). We additionally tested these degraders in MOLM-13 cells which carry FLT3-ITD and FLT3 from a patient with AML after initial myelodysplastic syndrome.
(§2) Figure 4 Biological and biochemical characterization of the FLT3 PROTACs. (a) MV4-11 cells were incubated for 24 h with 50 nM of the indicated compounds. Immunoblotting was performed for the indicated proteins and their phosphorylation (p-) or cleavage (cl.; indicated by arrows); β-actin was used to ensure equal sample loading. (b) MV4-11 cells were treated with the indicated agents and analyzed for early and late apoptosis by flow cytometry. (c) Same as in (b) but treatment for 72 h. (d) MOLM-13 cells were treated with the indicated agents and analyzed for early and late apoptosis by flow cytometry. […] Immunoblots show the expression of the indicated proteins and their phosphorylation (p-); β-actin was used to ensure equal sample loading. All immunoblots show data from at least two independent repetitions and flow cytometry analyses were conducted thrice independently; * […], ** p < 0.01, *** p < 0.001, **** p < 0.0001.

in vitro = conditions: CD-1, mouse, liver microsomes, pH 7.4
[2] = Metabolic stability in liver microsomes; conditions: for degraded after 2 h: mouse liver microsomes; for 10 min - compound remaining % / 20 min - compound remaining % / 30 min - compound remaining % / 60 min - compound remaining % / 120 min - compound remaining %: single runs A and B (Table S3)
HEK293 cells = experiment: Cytotoxicity in HEK293 cells (Alamar Blue); conditions: 50 µM
FLT3-ITD [3] = biological target: T1, FLT3-ITD (Homo sapiens, UniProt P36888, INS600HVDFREYEYD); experiment: FLT3-ITD degradation, immunoblot in MV4-11 cells; conditions: for inhibition at 0.05 µM: MV4-11, 24 h, read-out: % FLT3-ITD Degradation at 50 nM; for reduction/elimination of FLT3-ITD / FLT3-ITD degradation / FLT3-ITD (130 kDa) level relative to untreated cells: MV4-11 cells; for FLT3-ITD degradation / FLT3-ITD (130 kDa) level relative to untreated cells: 50 nM; for FLT3-ITD degradation: 24 h
T1 sequence (P36888 with tags, fused parts or gaps INS600HVDFREYEYD): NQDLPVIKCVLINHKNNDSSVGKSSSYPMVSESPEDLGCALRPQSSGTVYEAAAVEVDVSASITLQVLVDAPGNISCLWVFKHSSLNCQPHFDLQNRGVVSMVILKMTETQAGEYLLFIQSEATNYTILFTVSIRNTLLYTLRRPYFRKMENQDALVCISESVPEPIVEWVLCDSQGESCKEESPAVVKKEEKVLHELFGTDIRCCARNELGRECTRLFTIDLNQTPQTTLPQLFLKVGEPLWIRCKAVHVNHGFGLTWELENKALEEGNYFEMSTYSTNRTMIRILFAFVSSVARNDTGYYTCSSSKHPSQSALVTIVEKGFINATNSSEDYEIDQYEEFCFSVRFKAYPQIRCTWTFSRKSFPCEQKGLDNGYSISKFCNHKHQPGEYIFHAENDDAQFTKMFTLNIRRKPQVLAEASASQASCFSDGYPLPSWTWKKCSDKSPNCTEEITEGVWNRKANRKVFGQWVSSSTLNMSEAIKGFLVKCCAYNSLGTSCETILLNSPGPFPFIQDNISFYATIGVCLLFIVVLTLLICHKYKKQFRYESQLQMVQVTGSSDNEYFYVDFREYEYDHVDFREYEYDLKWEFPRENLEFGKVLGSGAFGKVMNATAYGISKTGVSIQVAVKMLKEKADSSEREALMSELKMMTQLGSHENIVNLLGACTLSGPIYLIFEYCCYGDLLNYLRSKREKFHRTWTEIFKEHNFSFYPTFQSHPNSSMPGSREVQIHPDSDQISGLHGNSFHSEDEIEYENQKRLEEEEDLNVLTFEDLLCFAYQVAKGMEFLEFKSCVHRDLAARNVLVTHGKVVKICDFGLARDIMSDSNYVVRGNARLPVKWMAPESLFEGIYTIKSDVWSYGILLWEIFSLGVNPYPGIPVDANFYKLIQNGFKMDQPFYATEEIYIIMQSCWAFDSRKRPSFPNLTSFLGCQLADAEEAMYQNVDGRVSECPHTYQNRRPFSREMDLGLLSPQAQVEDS

MAPK14 = MAPK14 (Homo sapiens, UniProt Q16539); experiment: KINOMEscan binding assay; set-up: purchased Eurofins DiscoverX Corporation; host or cells: E. coli BL21-derived (T7 phage) or HEK-293
Sequence of MAPK14 (Q16539 whole entry): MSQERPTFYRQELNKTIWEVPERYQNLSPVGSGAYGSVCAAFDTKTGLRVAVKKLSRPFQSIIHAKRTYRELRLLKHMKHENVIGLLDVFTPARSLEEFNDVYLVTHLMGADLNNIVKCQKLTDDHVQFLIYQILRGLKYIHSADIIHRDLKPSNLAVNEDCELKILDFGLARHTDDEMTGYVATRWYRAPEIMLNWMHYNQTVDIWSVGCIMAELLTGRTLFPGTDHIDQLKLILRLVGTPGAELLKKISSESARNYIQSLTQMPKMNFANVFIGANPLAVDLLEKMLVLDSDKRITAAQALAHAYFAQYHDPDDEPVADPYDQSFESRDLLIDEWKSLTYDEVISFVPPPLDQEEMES
Procedure: as §1

FLT3-ITD [4] = experiment: FLT3-ITD degradation, immunoblot in MOLM-13 cells; assay type: cell-based, human; conditions: 50 nM, 24 h
Description: To verify that MA190 and MA191 trigger the depletion of FLT3-ITD and a breakdown of its downstream signaling in both MV4-11 and MOLM-13 cells, we used immunoblotting. Furthermore, we evaluated if the elimination of FLT3-ITD is inherent to the PROTAC activities of MA190 and MA191, or due to their kinase inhibitor moieties using MA68. […] The loss of FLT3-ITD was linked to a reduction of STAT5 and AKT, their phosphorylation, and the auto-phosphorylation of FLT3-ITD in both AML cell systems (Figure 4f,g).
as §2

[5] = mouse (CD-1) liver microsomes, 25 μM

Row | % FLT3-ITD Binding at 1 µM (FLT3-ITD [1]) [%] | remaining at 0 h, 25 µM (in vitro) [%] | remaining at 10 min, 25 µM (in vitro) [%] | remaining at 20 min, 25 µM (in vitro) [%] | remaining at 0.5 h, 25 µM (in vitro) [%] | remaining at 1 h, 25 µM (in vitro) [%] | remaining at 2 h, 25 µM (in vitro) [%] | 20 min—Compound Remaining % [2, 5] [%] | 30 min—Compound Remaining % [2, 5] [%] | 60 min—Compound Remaining % [2, 5] [%] | degraded after 2 h [2] [%] | inhibition at 0.05 µM (FLT3-ITD [3]) [%] | reduction/elimination of FLT3-ITD (FLT3-ITD [3]) [%] | % MAPK- 14 Binding at 1 µM (MAPK14) [%] | FLT3-ITD degradation (FLT3-ITD [3]) | 10 min—Compound Remaining % [2, 5] [%] | FLT3-ITD (130 kDa) level relative to untreated cells (FLT3-ITD [3]) [%] | Compound | induction of late apoptosis (MOLM-13 cells) | cytotoxic effects (HEK293 cells) | FLT3-ITD degradation (FLT3-ITD [4]) | also measured
1 | 91 ± 2 | 100 | 66 | 53 | 37 | 29 | 15 | 52.9 ± 2.1 | 37.2 ± 0.6 | 28.8 ± 2.9 | 85.0 | 80 | 80 | 81 ± 0 | – | – | – | Cc1ncsc1-c1ccc([C@H](C)NC(=O)[C@@H]2C[C@@H](O)CN2C(=O)[C@@H](NC(=O)CCOCCOCCOCCNC(=O)c2cc(Oc3ccc(NC(=O)Nc4cc(C(C)(C)C)on4)cc3)ccn2)C(C)(C)C)cc1 [MA49, reference compound] | most potent inducers of late apoptosis | showed cytotoxic effects | – | 10 min - compound remaining % ([2]; listed as MA49_B): 71%; 20 min - compound remaining % ([2]; listed as MA49_B): 57%; 30 min - compound remaining % ([2]; listed as MA49_B): 38%; 60 min - compound remaining % ([2]; listed as MA49_B): 35%; 120 min - compound remaining % ([2]; 120 min, listed as MA49_B): 10%
2 | 71 ± 1 | 100 | 92 | 90 | 95 | 96 | 91 | 88.5 ± 1.2 | 93.9 ± 0.6 | – | 8.0 | 95 | > 95 | 90 ± 2 | eliminate FLT3-ITD | 91.5 ± 0.4 | 5 | Cc1ncsc1-c1ccc([C@H](C)NC(=O)[C@@H]2C[C@@H](O)CN2C(=O)[C@@H](NC(=O)[C@H]2CC[C@H](C(=O)N3CCC(CCNC(=O)c4cc(Oc5ccc(NC(=O)Nc6cc(C(C)(C)C)on6)cc5)ccn4)CC3)CC2)C(C)(C)C)cc1 [MA190, 4-(4-(3-(5-(tert-Butyl)isoxazol-3-yl)ureido)phenoxy)-N-(2-(1-(trans-4-(((S)-1-((2S,4R)-4-hydroxy-2-(((S)-1-(4-(4-methylthiazol-5-yl)phenyl)ethyl)carbamoyl)pyrrolidin-1-yl)-3,3-dimethyl-1-oxobutan-2-yl)carbamoyl)cyclohexanecarbonyl)piperidin-4-yl)ethyl)picolinamide] | most potent inducers of late apoptosis | no cytotoxic effects | eliminate FLT3-ITD | 20 min - compound remaining % ([2]; listed as MA190_B): 87%; 30 min - compound remaining % ([2]; listed as MA190_B): 93%; 120 min - compound remaining % ([2]; 120 min, listed as MA190_B): 93%
3 | 88 ± 2 | 100 | 99 | 96 | 94 | 93 | 91 | 97.0 ± 1.0 | 95.0 ± 1.2 | 91.2 ± 1.8 | 10.8 | 95 | > 95 | 89 ± 2 | eliminate FLT3-ITD | 98.2 ± 0.9 | 5 | Cc1ncsc1-c1ccc([C@H](C)NC(=O)[C@@H]2C[C@@H](O)CN2C(=O)[C@@H](NC(=O)[C@H]2CC[C@H](C(=O)N3CCN(CCNC(=O)c4cc(Oc5ccc(NC(=O)Nc6cc(C(C)(C)C)on6)cc5)ccn4)CC3)CC2)C(C)(C)C)cc1 [MA191, 4-(4-(3-(5-(tert-Butyl)isoxazol-3-yl)ureido)phenoxy)-N-(2-(4-(trans-4-(((S)-1-((2S,4R)-4-hydroxy-2-(((S)-1-(4-(4-methylthiazol-5-yl)phenyl)ethyl)carbamoyl)pyrrolidin-1-yl)-3,3-dimethyl-1-oxobutan-2-yl)carbamoyl)cyclohexanecarbonyl)piperazin-1-yl)ethyl)picolinamide] | most potent inducers of late apoptosis | no cytotoxic effects | eliminate FLT3-ITD | 120 min—Compound Remaining % ([2]; mouse (CD-1) liver microsomes, 25 μM, 120 min): 89.2 ± 1.0%; 10 min - compound remaining % ([2]; listed as MA191_B): 97%; 20 min - compound remaining % ([2]; listed as MA191_B): 98%; 60 min - compound remaining % ([2]; listed as MA191_B): 89%; 120 min - compound remaining % ([2]; 120 min, listed as MA191_B): 88%

Row | Compound | % FLT3-ITD Binding at 1 µM (FLT3-ITD [1]) [%] | remaining at 0 h, 25 µM (in vitro) [%] | remaining at 10 min, 25 µM (in vitro) [%] | remaining at 20 min, 25 µM (in vitro) [%] | remaining at 0.5 h, 25 µM (in vitro) [%] | remaining at 1 h, 25 µM (in vitro) [%] | remaining at 2 h, 25 µM (in vitro) [%] | 20 min—Compound Remaining % [2, 5] [%] | 30 min—Compound Remaining % [2, 5] [%] | 60 min—Compound Remaining % [2, 5] [%] | degraded after 2 h [2] [%] | inhibition at 0.05 µM (FLT3-ITD [3]) [%] | reduction/elimination of FLT3-ITD (FLT3-ITD [3]) [%] | % MAPK- 14 Binding at 1 µM (MAPK14) [%] | FLT3-ITD degradation (FLT3-ITD [3]) | 10 min—Compound Remaining % [2, 5] [%] | FLT3-ITD (130 kDa) level relative to untreated cells (FLT3-ITD [3]) [%] | induction of late apoptosis (MOLM-13 cells) | cytotoxic effects (HEK293 cells) | FLT3-ITD degradation (FLT3-ITD [4]) | also measured
4 | CNC(=O)c1cc(Oc2ccc(NC(=O)Nc3cc(C(C)(C)C)on3)cc2)ccn1 [MA68, reference compound] | – | – | – | – | – | – | – | – | – | – | – | – | – | – | but not their underlying kinase inhibitor MA68, eliminate FLT3-ITD | – | – | – | showed cytotoxic effects | but not their underlying kinase inhibitor MA68, eliminate FLT3-ITD | –
